Results reported in US10335409B2 (priority 2012, dated 2019).
Where two headings read alike, the source gives them in different places.

Legend:
[1] = target: HCV NS3 protease domain genotype 1b (Hepatitis C virus genotype 1b (isolate Con1), UniProt Q9WMX2, E1202G); assay: Ki determination, NS3 protease genotype 1b (fluorogenic depsipeptide substrate); format: biochemical; conditions: 50 pM enzyme, NS4A peptide
Procedure: Purified NS3 protease domain (amino acids 1-181) of the genotype 1b and 3a virus were generated as above.
Reactions were run at room temperature in buffer consisting of 50 mM HEPES, 40% glycerol, 0.05% Triton X-100, 10 mM DTT, and 10% DMSO. The final assay solutions contained 50 pM NS3 genotype 1 b protease or 200 pM genotype 3a protease, 20 μM NS4A peptide, and 4 μM substrate (genotype 1b) or 2 μM substrate (genotype 3a). Inhibitor concentrations varied from 100 nM to 5 pM in 3-fold dilutions, and no-inhibitor controls were included.
Compound dilutions were made in DMSO at 20× final concentration. Reaction mixtures were prepared in 96-well assay plates. A solution of enzyme and NS4A peptide in assay buffer (25 μL volume with both reagents at 4× final concentration) was mixed with 45 μL assay buffer and 5 μL of either inhibitor or DMSO, and pre-incubated at room temperature for 1 hour. The reaction was started by addition of 25 μL substrate solution at 4× final concentration. Plates were mixed vigorously for 5-10 seconds and reactions were allowed to proceed for 90 minutes, fluorescence was measured every 30 s between 90 and 120 minutes reaction time using a Tecan InfiniTe M1000 or PerkinElmer Envision multimode plate reader with an excitation wavelength of 340 nm and an emission wavelength of 490 nm.
To determine the Ki, rates were plotted as a function of inhibitor concentration, and the data were fit with equation 1 (Morrison, J. F., Biochimica et Biophysica Acta 1969, 185, 269-286) to calculate Ki^app using GraphPad Prism 5. […] Ki was calculated from Ki^app/(1+[[S]/Km]).

[2] = target: HCV NS3 protease domain genotype 3a (Hepatitis C virus genotype 3a, UniProt Q81258); assay: Ki determination, NS3 protease genotype 3a (fluorogenic depsipeptide substrate); format: biochemical; conditions: 200 pM enzyme, NS4A peptide
HCV NS3 protease domain genotype 3a, sequence (Q81258 whole entry, looked up, the tested form may be a part): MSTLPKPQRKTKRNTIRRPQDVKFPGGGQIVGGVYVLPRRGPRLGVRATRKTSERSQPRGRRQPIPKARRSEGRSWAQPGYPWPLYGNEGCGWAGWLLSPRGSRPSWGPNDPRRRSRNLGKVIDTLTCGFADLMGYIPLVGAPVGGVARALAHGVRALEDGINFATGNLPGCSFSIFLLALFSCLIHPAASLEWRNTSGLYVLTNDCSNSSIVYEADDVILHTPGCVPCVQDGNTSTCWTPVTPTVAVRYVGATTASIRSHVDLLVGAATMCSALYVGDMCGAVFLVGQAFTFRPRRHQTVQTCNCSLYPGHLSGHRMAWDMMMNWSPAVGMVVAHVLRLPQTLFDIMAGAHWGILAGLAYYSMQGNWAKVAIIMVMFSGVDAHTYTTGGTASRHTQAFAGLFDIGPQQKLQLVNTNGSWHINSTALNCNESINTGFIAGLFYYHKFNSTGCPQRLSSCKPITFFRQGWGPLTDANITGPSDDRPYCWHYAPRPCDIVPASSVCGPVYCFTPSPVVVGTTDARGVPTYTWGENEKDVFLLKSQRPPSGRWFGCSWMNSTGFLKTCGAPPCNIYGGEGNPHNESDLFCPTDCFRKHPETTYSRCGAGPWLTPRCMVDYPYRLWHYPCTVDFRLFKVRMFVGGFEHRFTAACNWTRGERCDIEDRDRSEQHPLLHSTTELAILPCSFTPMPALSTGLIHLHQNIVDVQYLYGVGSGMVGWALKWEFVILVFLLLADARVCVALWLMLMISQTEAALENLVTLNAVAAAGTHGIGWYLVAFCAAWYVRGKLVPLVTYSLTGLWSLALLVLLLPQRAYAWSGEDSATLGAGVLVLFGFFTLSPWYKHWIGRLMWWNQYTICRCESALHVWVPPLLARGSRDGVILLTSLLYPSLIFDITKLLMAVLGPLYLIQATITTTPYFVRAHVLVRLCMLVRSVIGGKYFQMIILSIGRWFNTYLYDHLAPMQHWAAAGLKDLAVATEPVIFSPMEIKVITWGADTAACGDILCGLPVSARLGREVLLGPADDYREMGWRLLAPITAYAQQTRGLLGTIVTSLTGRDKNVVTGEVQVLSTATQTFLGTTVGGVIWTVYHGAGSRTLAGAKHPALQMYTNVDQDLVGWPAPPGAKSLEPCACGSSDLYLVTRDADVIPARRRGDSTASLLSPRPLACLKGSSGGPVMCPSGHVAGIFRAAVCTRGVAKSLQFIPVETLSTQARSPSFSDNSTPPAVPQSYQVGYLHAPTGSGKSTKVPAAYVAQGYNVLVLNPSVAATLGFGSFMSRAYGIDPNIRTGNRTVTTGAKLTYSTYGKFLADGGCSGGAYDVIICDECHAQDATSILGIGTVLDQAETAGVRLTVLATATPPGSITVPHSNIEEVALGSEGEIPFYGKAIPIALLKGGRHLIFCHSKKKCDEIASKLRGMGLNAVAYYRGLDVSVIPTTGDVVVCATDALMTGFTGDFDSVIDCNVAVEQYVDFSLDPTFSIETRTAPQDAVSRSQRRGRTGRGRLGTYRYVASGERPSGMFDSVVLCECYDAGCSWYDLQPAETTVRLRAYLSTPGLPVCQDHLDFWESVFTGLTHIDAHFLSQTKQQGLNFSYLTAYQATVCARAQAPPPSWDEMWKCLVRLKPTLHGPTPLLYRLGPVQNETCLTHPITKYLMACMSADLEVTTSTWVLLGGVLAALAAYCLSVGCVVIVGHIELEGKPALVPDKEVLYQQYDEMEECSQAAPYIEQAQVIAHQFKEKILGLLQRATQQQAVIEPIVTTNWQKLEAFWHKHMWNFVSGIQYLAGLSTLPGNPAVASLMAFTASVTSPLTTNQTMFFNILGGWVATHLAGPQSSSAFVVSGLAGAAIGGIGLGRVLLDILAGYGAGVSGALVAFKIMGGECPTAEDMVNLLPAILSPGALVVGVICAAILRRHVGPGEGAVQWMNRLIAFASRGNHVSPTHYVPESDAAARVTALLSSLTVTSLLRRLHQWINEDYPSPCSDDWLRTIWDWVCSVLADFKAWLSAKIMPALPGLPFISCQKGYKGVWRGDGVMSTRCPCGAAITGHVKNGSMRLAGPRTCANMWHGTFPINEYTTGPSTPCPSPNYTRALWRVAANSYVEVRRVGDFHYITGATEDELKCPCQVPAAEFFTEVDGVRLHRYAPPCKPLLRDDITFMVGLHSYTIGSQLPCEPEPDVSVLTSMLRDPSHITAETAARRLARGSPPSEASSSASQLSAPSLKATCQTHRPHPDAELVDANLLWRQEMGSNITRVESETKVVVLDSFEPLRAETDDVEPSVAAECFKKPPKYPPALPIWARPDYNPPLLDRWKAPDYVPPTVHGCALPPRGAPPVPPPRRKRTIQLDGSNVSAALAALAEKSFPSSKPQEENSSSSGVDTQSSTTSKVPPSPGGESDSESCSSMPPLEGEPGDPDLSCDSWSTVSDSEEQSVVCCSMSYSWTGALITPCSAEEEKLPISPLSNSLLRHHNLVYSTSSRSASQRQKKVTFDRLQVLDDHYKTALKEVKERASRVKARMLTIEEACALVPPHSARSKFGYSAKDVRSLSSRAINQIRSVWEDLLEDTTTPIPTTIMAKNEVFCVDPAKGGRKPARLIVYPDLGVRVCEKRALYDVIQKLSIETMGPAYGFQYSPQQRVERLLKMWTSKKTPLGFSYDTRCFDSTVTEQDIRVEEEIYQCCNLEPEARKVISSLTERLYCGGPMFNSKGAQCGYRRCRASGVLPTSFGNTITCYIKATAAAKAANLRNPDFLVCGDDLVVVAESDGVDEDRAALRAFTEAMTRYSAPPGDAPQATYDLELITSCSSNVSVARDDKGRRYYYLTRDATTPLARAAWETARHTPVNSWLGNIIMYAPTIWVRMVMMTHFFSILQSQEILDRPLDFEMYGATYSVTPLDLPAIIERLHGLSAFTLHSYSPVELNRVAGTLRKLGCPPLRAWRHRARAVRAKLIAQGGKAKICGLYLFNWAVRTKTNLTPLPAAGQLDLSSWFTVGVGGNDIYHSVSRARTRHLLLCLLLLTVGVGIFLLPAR
Procedure, shortened: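 The NS3 protease domain (aa 1-181) with 20 μM NS4A peptide was used at 50 pM with 4 μM substrate (1b) or at 200 pM with 2 μM substrate (3a). Inhibitors (100 nM-5 pM) were pre-incubated 1 h at room temperature in HEPES/glycerol/DTT buffer with 10% DMSO. Steady-state rates (90-120 min) gave Ki via the Morrison equation, corrected for active enzyme and [S]/Km.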

[3] = tested on: genotype 1a (H77) stable HCV replicon in Huh-7-derived cells; assay: Stable subgenomic HCV replicon EC50, genotype 1a (Renilla luciferase); format: cell-based, hepatitis C virus; conditions: stable replicon genotype 1a, 72 h, read-out: EC50 1A RLUC
Procedure, shortened: (§1)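 Compounds, three-fold diluted, were applied to Huh-7-derived cells harbouring luciferase replicons (genotype 1a H77, 1b Con1, 2a JFH-1, 4a ED43, with strain-specific adaptive mutations). Seventy-two hours later, intracellular replication was gauged by Renilla luciferase activity and EC50 derived by regression.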

[4] = tested on: genotype 1b (Con1) stable HCV replicon in Huh-7-derived cells; assay: Stable subgenomic HCV replicon EC50, genotype 1b (Renilla luciferase); format: cell-based, hepatitis C virus; conditions: stable replicon genotype 1b, 72 h, read-out: EC50 1B RLUC
Procedure, shortened: as §1

[5] = tested on: genotype 2a (JFH-1) stable HCV replicon in Huh-7-derived cells; assay: Stable subgenomic HCV replicon EC50, genotype 2a (Renilla luciferase); format: cell-based, hepatitis C virus; conditions: stable replicon genotype 2a, 72 h, read-out: EC50 2A RLUC
Procedure, shortened: as §1

[6] = tested on: genotype 3a (S52) stable HCV replicon in Huh-7-derived cells; assay: Stable subgenomic HCV replicon EC50, genotype 3a (Renilla luciferase); format: cell-based, hepatitis C virus; conditions: 72 h, read-out: EC50 3A RLUC
[7] = tested on: genotype 4a (ED43) stable HCV replicon in Huh-7-derived cells; assay: Stable subgenomic HCV replicon EC50, genotype 4a (Renilla luciferase); format: cell-based, hepatitis C virus; conditions: 72 h, read-out: EC50 4A RLUC
Procedure, shortened: as §1

[8] = tested on: genotype 1a (H77) wild type transient HCV replicon in Huh-7-derived cells; assay: Transient-transfected HCV replicon EC50, genotype 1a wild type; format: cell-based, hepatitis C virus; conditions: 72 h, transient-transfected replicon genotype 1a wild type, read-out: EC50 1A WT
[9] = tested on: genotype 1a NS3/4a protease inhibitor resistant variant R155K transient HCV replicon in Huh-7-derived cells; assay: Transient-transfected HCV replicon EC50, genotype 1a R155K; format: cell-based, hepatitis C virus; conditions: 72 h
[10] = tested on: genotype 1b (Con1) wild type transient HCV replicon in Huh-7-derived cells; assay: Transient-transfected HCV replicon EC50, genotype 1b wild type; format: cell-based, hepatitis C virus; conditions: 72 h, transient-transfected replicon genotype 1b wild type, read-out: EC50 1B WT
[11] = tested on: genotype 1b NS3/4a protease inhibitor resistant variant D168A transient HCV replicon in Huh-7-derived cells; assay: Transient-transfected HCV replicon EC50, genotype 1b D168A; format: cell-based, hepatitis C virus; conditions: 72 h
[12] = Hepatitis C virus, read-out: EC50 1A R155K, transient-transfected replicon genotype 1a R155K resistant variant, 72 h
[13] = Hepatitis C virus, read-out: EC50 1B D168A, transient-transfected replicon genotype 1b D168A resistant variant, 72 h

HCV NS3 protease domain genotype 1b, sequence (Q9WMX2 1027-1208 E1202G): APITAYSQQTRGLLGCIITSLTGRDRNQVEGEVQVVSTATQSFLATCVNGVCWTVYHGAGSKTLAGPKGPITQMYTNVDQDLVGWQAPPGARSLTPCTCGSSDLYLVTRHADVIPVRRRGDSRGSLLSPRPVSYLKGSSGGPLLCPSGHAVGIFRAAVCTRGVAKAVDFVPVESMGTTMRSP

Row | SMILES | Ki [1] [nM] | Ki [2] [nM] | EC50 ([3]; Hepatitis C virus) [nM] | EC50 ([4]; Hepatitis C virus) [nM] | EC50 ([5]; Hepatitis C virus) [nM] | EC50 ([6]; Hepatitis C virus) [nM] | EC50 ([7]; Hepatitis C virus) [nM] | EC50 ([8]; Hepatitis C virus) [nM] | EC50 [9, 12] [nM] | EC50 ([10]; Hepatitis C virus) [nM] | EC50 [11, 13] [nM] | EC50 [3] [nM] | EC50 [4] [nM] | EC50 [5] [nM] | EC50 ([6]; stable replicon genotype 3a, Renilla luciferase) [nM] | EC50 ([7]; stable replicon genotype 4a, Renilla luciferase) [nM] | EC50 [8] [nM] | EC50 ([9]; transient-transfected replicon genotype 1a R155K resistant variant, read-out: EC50 1A R155K) [nM] | EC50 [10] [nM] | EC50 ([11]; transient-transfected replicon genotype 1b D168A resistant variant, read-out: EC50 1B D168A) [nM]
1 | COc1ccc2nc3c(nc2c1)O[C@H]1CN(C(=O)[C@H](C(C)(C)C)NC(=O)O[C@@H]2C[C@H]2CCCCC3)[C@H](C(=O)N[C@]2(C(=O)NS(=O)(=O)C3(C)CC3)C[C@H]2C(F)F)[C@@H]1CC(C)C [Example 30, (1aR,5S,8S,9S,10R,22aR)-5-tert-butyl-N-[(1R,2R)-2-(difluoromethyl)-1-{[(1-methylcyclopropyl)sulfonyl]carbamoyl}cyclopropyl]-14-methoxy-9-(2-methylpropyl)-3,6-dioxo-1,1a,3,4,5,6,9,10,18,19,20,21,22,22a-tetradecahydro-8H-7,10-methanocyclopropa[18,19][1,10,3,6]dioxadiazacyclononadecino[11,12-b]quinoxaline-8-carboxamide] | 0.14 | 0.63 | 55 | 35 | 47 | 2440 | 31 | 41 | 296 | 31 | 503 | – | – | – | – | – | – | – | – | –
2 | COc1ccc2nc3c(nc2c1)O[C@H]1CN(C(=O)[C@H](C(C)(C)C)NC(=O)O[C@@H]2[C@H]4CC[C@H](C4)[C@H]2CCCCC3)[C@H](C(=O)N[C@]2(C(=O)NS(=O)(=O)C3CC3)C[C@H]2C(F)F)[C@@H]1C [Example 26, (1R,4S,4aR,8S,11S,12S,13R,25aR)-8-tert-butyl-N-[(1R,2R)-1-[(cyclopropylsulfonyl)carbamoyl]-2-(difluoromethyl)cyclopropyl]-17-methoxy-12-methyl-6,9-dioxo-2,3,4,4a,6,7,8,9,12,13,21,22,23,24,25,25a-hexadecahydro-1H,11H-1,4:10,13-dimethanoquinoxalino[2,3-k][1,10,3,6]benzodioxadiazacyclononadecine-11-carboxamide] | 0.05 | 0.17 | 6.3 | 4.3 | 12 | 297 | 6 | 3.6 | 12 | 1.9 | 109 | – | – | – | – | – | – | – | – | –
3 | CC[C@@H]1[C@@H]2CN(C(=O)[C@H](C3CCCC3)NC(=O)O[C@@H]3C[C@H]3CCCCCc3nc4ccc(OC)cc4nc3O2)[C@@H]1C(=O)N[C@]1(C(=O)NS(=O)(=O)C2(C)CC2)C[C@H]1C(F)F [Example 14, (1aR,5S,8S,9S,10R,22aR)-5-cyclopentyl-N-[(1R,2R)-2-(difluoromethyl)-1-{[(1-methylcyclopropyl)sulfonyl]carbamoyl}cyclopropyl]-9-ethyl-14-methoxy-3,6-dioxo-1,1a,3,4,5,6,9,10,18,19,20,21,22,22a-tetradecahydro-8H-7,10-methanocyclopropa[18,19][1,10,3,6]dioxadiazacyclononadecino[11,12-b]quinoxaline-8-carboxamide] | 0.07 | 0.24 | 9.7 | 6.8 | 7 | 308 | 7.3 | 7.4 | 21 | 4 | 99 | – | – | – | – | – | – | – | – | –
4 | CCC[C@@H]1[C@@H]2CN(C(=O)[C@H](C(C)(C)C)NC(=O)O[C@@H]3C[C@H]3CCCCCc3nc4ccc(OC)cc4nc3O2)[C@@H]1C(=O)N[C@]1(C(=O)NS(=O)(=O)C2(C)CC2)C[C@H]1C(F)F [Example 29, (1aR,5S,8S,9S,10R,22aR)-5-tert-butyl-N-[(1R,2R)-2-(difluoromethyl)-1-{[(1-methylcyclopropyl)sulfonyl]carbamoyl}cyclopropyl]-14-methoxy-3,6-dioxo-9-propyl-1,1a,3,4,5,6,9,10,18,19,20,21,22,22a-tetradecahydro-8H-7,10-methanocyclopropa[18,19][1,10,3,6]dioxadiazacyclononadecino[11,12-b]quinoxaline-8-carboxamide] | 0.06 | 0.12 | 10 | 8.9 | 11 | 137 | 7.2 | 4.8 | 11 | 3.1 | 48 | – | – | – | – | – | – | – | – | –
5 | COc1ccc2nc3c(nc2c1)O[C@H]1CN(C(=O)[C@H](C(C)(C)C)NC(=O)O[C@@H]2CCN(C(C)=O)C2CCCCC3)[C@H](C(=O)N[C@]2(C(=O)NS(=O)(=O)C3(C)CC3)C[C@H]2C(F)F)[C@@H]1C (stereo partly drawn) [Example 80, (3aR,7S,10S,11S,12R)-1-acetyl-7-tert-butyl-N-[(1R,2R)-2-(difluoromethyl)-1-{[(1-methylcyclopropyl)sulfonyl]carbamoyl}cyclopropyl]-16-methoxy-11-methyl-5,8-dioxo-1,2,3,3a,5,6,7,8,11,12,20,21,22,23,24,24a-hexadecahydro-10H-9,12-methanopyrrolo[2′,3′:18,19][1,10,3,6]dioxadiazacyclononadecino[11,12-b]quinoxaline-10-carboxamide] | 0.49 | 13 | 1130 | 344 | 748 | 44400 | 1180 | 403 | 2860 | 53 | 443 | – | – | – | – | – | – | – | – | –
6 | COc1ccc2nc3c(nc2c1)O[C@H]1CN(C(=O)[C@H](C(C)(C)C)NC(=O)O[C@@H]2C[C@H]2CCCCC3)[C@H](C(=O)N[C@]2(C(=O)NS(=O)(=O)C3(C)CC3)C[C@H]2C(F)F)[C@@H]1C1CC1 [Example 31, (1aR,5S,8S,9S,10R,22aR)-5-tert-butyl-9-cyclopropyl-N-[(1R,2R)-2-(difluoromethyl)-1-{[(1-methylcyclopropyl)sulfonyl]carbamoyl}cyclopropyl]-14-methoxy-3,6-dioxo-1,1a,3,4,5,6,9,10,18,19,20,21,22,22a-tetradecahydro-8H-7,10-methanocyclopropa[18,19][1,10,3,6]dioxadiazacyclononadecino[11,12-b]quinoxaline-8-carboxamide] | 0.13 | 4.9 | – | – | – | – | – | – | – | – | – | 40 | 18 | 63 | 2070 | 20 | 27 | 154 | 6.6 | 805
